{"source": "paper PMC10327353", "about": "(Breast Cancer Research : BCR, 2023)", "key": {"[1]": {"assay": "In vivo CNS-PK study in monkey", "conditions": "female, cynomolgus monkey, CSF (relative to unbound plasma/blood), single PO dose of DZD1516 30 mg/kg", "method": "The ability of DZD1516 and DZ2678 to cross the BBB in female Wistar Han rat and female Cynomolgus monkey was studied by assessing the free brain-to-plasma ratio (Kp,uu,brain) and CSF-to-free plasma ratio (Kp,uu,CSF). Total brain-to-blood ratio (Kp,brain) and CSF-to-blood ratio (Kp,CSF) were measured from six time points after oral administration. Free fractions of DZD1516 and DZ2678 in the biological matrix were determined by in vitro plasma and brain binding assay.\nKp,brain= AUCbrain/AUCblood. Kp,CSF was the average of the CSF-to-blood ratios at the evaluated time points. Kp,uu,brain= Kp,brain× fu,brain/fu,blood; Kpuu,CSF= Kp,CSF/fu,blood.\nThree female Cynomolgus monkeys were administered with a single PO dose of DZD1516 at 30 mg/kg. The PO dosing formulation was a suspension in 0.5% HPMC E5 in water (w/v). Plasma and CSF samples were collected at 0.5, 1, 2, 4, 8, and 24 hrs post-dose. The concentrations of DZD1516 and metabolite DZ2678 in monkey plasma and CSF were determined by the validated LC-MS/MS method."}, "[2]": {"target": "T1, pHER2 (Homo sapiens, UniProt P04626)", "T1 construct": "from tissue; host or cells: subcutaneous BT474C1-Luci Mono1 xenograft tumour tissue from nude mice", "T1 sequence (P04626 23-1255)": "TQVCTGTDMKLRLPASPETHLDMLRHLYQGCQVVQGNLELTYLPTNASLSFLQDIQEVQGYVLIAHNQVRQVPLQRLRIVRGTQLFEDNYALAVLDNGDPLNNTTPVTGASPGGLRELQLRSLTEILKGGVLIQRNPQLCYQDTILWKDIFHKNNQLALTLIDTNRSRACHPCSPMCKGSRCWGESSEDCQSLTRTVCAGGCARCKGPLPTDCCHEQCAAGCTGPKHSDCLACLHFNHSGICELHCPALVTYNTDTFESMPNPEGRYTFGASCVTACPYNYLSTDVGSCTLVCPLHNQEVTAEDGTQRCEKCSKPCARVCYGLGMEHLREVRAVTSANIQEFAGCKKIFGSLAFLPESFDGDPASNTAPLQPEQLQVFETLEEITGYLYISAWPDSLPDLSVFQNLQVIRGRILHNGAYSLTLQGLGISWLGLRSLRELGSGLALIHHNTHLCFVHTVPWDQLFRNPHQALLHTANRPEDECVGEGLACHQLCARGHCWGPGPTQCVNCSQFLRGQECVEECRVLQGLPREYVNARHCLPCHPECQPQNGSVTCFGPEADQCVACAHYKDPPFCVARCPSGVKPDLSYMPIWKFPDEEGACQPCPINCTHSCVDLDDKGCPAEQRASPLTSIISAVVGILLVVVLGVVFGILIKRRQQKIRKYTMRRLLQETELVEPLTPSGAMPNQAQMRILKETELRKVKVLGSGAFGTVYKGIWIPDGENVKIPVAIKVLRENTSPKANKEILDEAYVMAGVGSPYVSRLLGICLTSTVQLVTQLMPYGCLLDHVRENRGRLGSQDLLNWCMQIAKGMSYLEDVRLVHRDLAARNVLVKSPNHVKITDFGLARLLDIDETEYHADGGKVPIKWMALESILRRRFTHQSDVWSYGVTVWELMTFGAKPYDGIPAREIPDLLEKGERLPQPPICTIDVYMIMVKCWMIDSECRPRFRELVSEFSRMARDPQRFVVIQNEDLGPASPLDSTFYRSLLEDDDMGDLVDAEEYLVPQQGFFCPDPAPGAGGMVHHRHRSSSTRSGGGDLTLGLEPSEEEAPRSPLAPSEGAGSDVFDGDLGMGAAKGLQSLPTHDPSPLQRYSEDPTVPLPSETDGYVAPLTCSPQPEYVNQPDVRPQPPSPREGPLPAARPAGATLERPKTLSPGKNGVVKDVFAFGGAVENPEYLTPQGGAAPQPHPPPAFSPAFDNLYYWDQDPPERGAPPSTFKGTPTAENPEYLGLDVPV", "assay": "pHER2 IHC (PD) in SC xenograft tumor tissue after single dose", "format": "in vivo, mice", "method": "The subcutaneous xenograft tissues were collected from mice after a single dose of vehicle or DZD1516. Samples were snap-frozen for analysis. Tissues from animals were analyzed at each time point IHC was performed on 5 μm frozen sections using a Ventana discovery XT automation (Roche) for pHER2 (Catalog #) IHC staining. The stained IHC slides were firstly reviewed and interpreted by a qualified pathologist and then quantified by the Imagescope software of Aperio system. The “H” score quantified by Aperio system will be corrected by a pathologist. Statistical analysis was performed by t-test."}, "[3]": {"target": "HER2 (Homo sapiens, UniProt P04626)", "sequence (P04626 23-1255)": "as above", "assay": "In vitro HER2 enzymatic assay (Lance Ultra Kinase Assay)", "format": "biochemical", "set-up": "purchased Thermo Fisher PR4918A", "conditions": "recombinant HER2, 2 mM ATP; read-out: IC50 against HER2 in the enzymatic assay", "method": "Recombinant HER2 was purchased from Thermo Fisher (Cat. # PR4918A). The inhibition potency of compounds against HER2 enzyme was assessed using Lance Ultra Kinase Assay.\nIn brief, recombinant kinases were pre-incubated in the presence or absence of the compound at room temperature for 30 minutes. The reaction was initiated by the addition of the ATP and substrate peptide. After 60 minutes of incubation, the reaction was stopped by the addition of the detection reagent mix containing EDTA. The fluorescence was measured at 615 nm and 665 nm, respectively, with excitation wavelength at 320 nm. The calculated signal ratio of 665 nm/615 nm is proportional to the kinase activity."}, "[4]": {"assay": "Phase 1 study: plasma pharmacokinetics", "format": "in vivo, human", "conditions": "for AUC(0-t): 250 mg", "method": "Blood samples for PK analyses of DZD1516 and DZ2678 were collected on C0D1. Samples were obtained at pre-dose and at 0.5, 1, 1.5, 2, 2.5, 3, 4, 6, 8, 10, 24, 48, and 72 h after the dose, while for C1D15, samples were obtained at pre-dose and 0.5, 1, 1.5, 2, 2.5, 3, 4, 6, 8, and 10 h after the dose. CSF samples for PK analyses of DZD1516 and its metabolite DZ2678 were collected from patients with BM (C1D15) and LM (C1D15 and C3D1) at steady state (Additional file 1). Plasma and CSF samples were analyzed by LabCorp Madison laboratory (Madison, WI, USA) and LabCorp Shanghai laboratory (Shanghai, China) using a validated LC/MS/MS bioanalytical method to determine DZD1516 and DZ2678 concentrations. Non-compartmental PK analysis was performed using Phoenix WinNonlin (Certara USA Inc., version 8.3.3.33).\nBlood samples for PK analyses of DZD1516 and DZ2678 were collected on C0D1 and C1D15.\nPlasma concentrations of analytes evaluated in this study were determined using validated bioanalytical methods at Labcorp Madison lab (Madison, WI, USA) and Labcorp Shanghai lab (Shanghai, China). Concentrations of analytes in human plasma containing K2EDTA as an anticoagulant was determined using plasma precipitation, followed by analysis using high-performance LC-MS/MS detection. Two bioanalytical methods used […] of plasma and were linear over the range of 5.00 (the lower limit of quantification) to 5000 ng/mL for DZD1516 and 2.00 (the lower limit of quantification) to 2000 ng/mL for DZ2678 (Labcorp Shanghai lab), 1.96 (the lower limit of quantification) to 1960 ng/mL for DZ2678 (Labcorp Madison lab). The analysis runs for all analytes were determined to have a high degree of reproducibility and acceptably low inter-run carryover, which was considered acceptable for PK quantification. The plasma samples were stored at –70°C until analysis. PK analyses were performed by using Phoenix WinNonLin (Certara USA, Inc., Version 8.1 or higher)."}, "[5]": {"target": "potassium ion-channel hERG (Homo sapiens, UniProt Q12809)", "sequence (Q12809 whole entry)": "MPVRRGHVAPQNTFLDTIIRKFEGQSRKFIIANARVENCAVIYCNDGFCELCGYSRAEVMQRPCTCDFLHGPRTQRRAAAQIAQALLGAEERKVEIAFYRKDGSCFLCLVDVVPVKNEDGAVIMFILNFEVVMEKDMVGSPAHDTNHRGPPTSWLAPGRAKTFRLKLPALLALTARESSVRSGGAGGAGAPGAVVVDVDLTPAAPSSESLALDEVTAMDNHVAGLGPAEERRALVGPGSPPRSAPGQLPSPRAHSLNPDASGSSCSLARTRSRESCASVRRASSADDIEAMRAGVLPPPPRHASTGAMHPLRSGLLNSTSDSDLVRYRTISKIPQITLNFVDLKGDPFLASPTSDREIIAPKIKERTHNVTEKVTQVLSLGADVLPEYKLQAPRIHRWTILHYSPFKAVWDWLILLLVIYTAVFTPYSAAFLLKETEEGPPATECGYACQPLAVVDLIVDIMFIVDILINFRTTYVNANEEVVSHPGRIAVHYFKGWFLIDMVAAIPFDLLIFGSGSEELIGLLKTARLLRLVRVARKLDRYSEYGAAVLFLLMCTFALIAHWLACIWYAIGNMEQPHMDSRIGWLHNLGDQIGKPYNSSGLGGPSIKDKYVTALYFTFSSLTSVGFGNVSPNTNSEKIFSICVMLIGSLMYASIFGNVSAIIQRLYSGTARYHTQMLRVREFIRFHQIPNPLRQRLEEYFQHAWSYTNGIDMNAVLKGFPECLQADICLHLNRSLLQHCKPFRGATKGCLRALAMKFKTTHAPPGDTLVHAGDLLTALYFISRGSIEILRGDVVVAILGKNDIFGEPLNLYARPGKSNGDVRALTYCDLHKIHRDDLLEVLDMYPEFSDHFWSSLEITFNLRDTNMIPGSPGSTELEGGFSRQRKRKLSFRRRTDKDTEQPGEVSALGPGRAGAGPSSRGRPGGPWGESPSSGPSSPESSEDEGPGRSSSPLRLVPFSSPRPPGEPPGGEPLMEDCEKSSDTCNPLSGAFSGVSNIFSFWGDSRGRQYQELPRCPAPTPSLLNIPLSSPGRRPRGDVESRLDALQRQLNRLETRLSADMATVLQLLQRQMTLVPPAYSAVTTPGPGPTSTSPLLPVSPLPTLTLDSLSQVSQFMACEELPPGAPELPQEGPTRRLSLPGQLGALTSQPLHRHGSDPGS", "assay": "hERG in vitro safety pharmacology", "format": "biochemical"}}, "note": "Read-outs that look alike come from different tables or passages of the source.", "data": [{"smiles": "COc1cc(O[C@H]2CCN(C)CC2(F)F)c2c(Nc3ccc(Oc4ccn5ncnc5c4)c(C)c3)ncnc2c1", "note": "[DZD1516]", "values": [{"measurement": "Kp uu", "setting": "[1]", "value": 4.1}, {"measurement": "inhibition at 50 mg/kg", "setting": "[2]; mouse, single dose 50 mg/kg, 0.25 h", "value": "> 94", "unit": "%"}, {"measurement": "inhibition at 150 mg/kg", "setting": "[2]; mouse, single dose 150 mg/kg", "value": 89, "unit": "%"}, {"measurement": "duration of pHER2 inhibition", "setting": "[2]; single dose 50 mg/kg", "value": 6, "unit": "h"}, {"measurement": "duration of pHER2 inhibition", "setting": "[2]; single dose 150 mg/kg", "value": 24, "unit": "h"}, {"measurement": "IC50", "setting": "[3]", "value": 0.56, "unit": "nM"}, {"measurement": "Css,max, Geometric Mean [CV%]", "setting": "[4]; Day 15, 250 mg BID DZD1516", "value": "1410[44.64] ng/mL"}, {"measurement": "Css,min, Geometric Mean [CV%]", "setting": "[4]; Day 15, 250 mg BID DZD1516", "value": "442.8[50.12] ng/mL"}, {"measurement": "tss,max, Median (Min, Max)", "setting": "[4]; Day 15, 250 mg BID DZD1516", "value": "1.483(0.533,2.47) hr"}, {"measurement": "AUC(0-t)", "setting": "[4]; human, plasma, oral, Day 1, 250 mg DZD1516, read-out: AUC0-10, Geometric Mean [CV%]", "value": 6160, "unit": "ng·h/mL"}, {"measurement": "AUC(0-t)", "setting": "[4]; human, plasma, oral, Day 1, 250 mg DZD1516, read-out: AUC0-72, Geometric Mean [CV%]", "value": 13200, "unit": "ng·h/mL"}, {"measurement": "AUC(0-t)", "setting": "[4]; human, plasma, oral, Day 15, 250 mg BID DZD1516, read-out: AUC0-10, Geometric Mean [CV%]", "value": 7560, "unit": "ng·h/mL"}, {"measurement": "Cmax", "setting": "[4]; human, plasma, oral, Day 1, 250 mg DZD1516, read-out: Cmax, Geometric Mean [CV%]", "value": 1330, "unit": "ng/mL"}, {"measurement": "half-life", "setting": "[4]; human, plasma, oral, Day 1, 250 mg DZD1516, read-out: t1/2, Mean (SD) (converted)", "value": 1190, "unit": "min"}, {"measurement": "Tmax", "setting": "[4]; human, plasma, oral, Day 1, 250 mg DZD1516, read-out: tmax, Median (Min, Max)", "value": 2.85, "unit": "h"}, {"measurement": "AUC", "setting": "[4]; human, plasma, oral, Day 15, 250 mg BID DZD1516, read-out: AUCtau, Geometric Mean [CV%]", "value": 8340, "unit": "ng·h/mL"}, {"measurement": "half-life", "setting": "[4]; human, plasma, oral, patients, read-out: half-life", "value": "798 to 1210", "unit": "min"}, {"measurement": "Tmax", "setting": "[4]; human, plasma, patients, single oral administration 50 to 300 mg, read-out: median tmax", "value": "2.15 to 3.22", "unit": "h"}, {"measurement": "accumulation", "setting": "[4]; steady state, 15 days of twice daily dosing", "value": "approximately twofold"}, {"measurement": "IC50", "setting": "[5]", "value": 3.29, "unit": "µM"}]}]}
